Source: patent US20100298286A1, “Organic Compounds” (NOVARTIS AG, priority 2007, published 2010)
pIC50: −log10 of the molar value.

Experiments:
Type in all cases: biochemical
PI3Kgamma = molecular target: T1, PI3Kgamma (Homo sapiens, UniProt P48736, Q459R); assay: PI3K KinaseGlo assay, PI3Kgamma; settings: 1 μM ATP, 150 nM enzyme, 90 mins
T1 construct: Constructs lacking the N-terminal 144 aa; His6 (C); made in house; host or cells: Tn5 insect cells; construct from Roger Williams lab (MRC LMB)
Procedure: PI3K KinaseGlo assay: […] of compound dilutions were dispensed onto black 384-well low volume Non Binding Styrene (NBS) plates (Costar Cat. No. NBS#3676). L-a-phosphatidylinositol (PI), provided as 10 mg/ml solution in methanol, was transferred into a glass tube and dried under nitrogen beam. It was then resuspended in 3% OctylGlucoside (OG) by vortexing and stored at 4° C. The KinaseGlo Luminescent Kinase Assay (Promega, Madison/WI, USA) is a homogeneous HTS method of measuring kinase activity by quantifying the amount of ATP remaining in solution following a kinase reaction.
5 μL of a mix of PI/OG with the PI3K subtype were added (Table 1). Kinase reactions were started by addition of 5 μl of ATP-mix containing in a final volume 10 μL 10 mM TRIS-HCl pH 7.5, 3 mM MgCl2, 50 mM NaCl, 0.05% CHAPS, 1 mM DTT and 1 μM ATP, and occurred at room temperature. Reactions were stopped with 10 μl of KinaseGlo and plates were read 10 mins later in a Synergy2 reader using an integration time of 0.1 seconds per well. […] The standard was used as a reference compound and included in all assay plates in the form of 16 dilution points in duplicate.
The PI3Kα, PI3Kβ and PI3Kδ constructs are fusion of p85α iSH2 domain and the respective p110 isoforms. The p85α fragment and p110 isoform genes were generated by PCR from first strand cDNA generated by RT-PCR from commercial RNA from placenta, testis and brain as described below. […]
The lysate was centrifuged at 45,000 g for 30 minutes, and the supernatant was loaded onto a pre-equilibrated IMAC column (3 mL resin/100 mL lysate). […] Pertinent fractions were analyzed by SDS-PAGE and pooled accordingly. […] Pertinent fractions were analyzed by SDS-PAGE and pooled accordingly. […]

PI3Kalpha = molecular target: T2, PI3Kalpha (Homo sapiens, UniProt P42336); assay: PI3K KinaseGlo assay, PI3Kalpha; settings: 1 μM ATP, 10 nM enzyme, 30 mins
T2 construct: His6 (C); made in house; host or cells: baculovirus / Tn5 insect cells
T2 sequence (P42336 with tags, fused parts or gaps): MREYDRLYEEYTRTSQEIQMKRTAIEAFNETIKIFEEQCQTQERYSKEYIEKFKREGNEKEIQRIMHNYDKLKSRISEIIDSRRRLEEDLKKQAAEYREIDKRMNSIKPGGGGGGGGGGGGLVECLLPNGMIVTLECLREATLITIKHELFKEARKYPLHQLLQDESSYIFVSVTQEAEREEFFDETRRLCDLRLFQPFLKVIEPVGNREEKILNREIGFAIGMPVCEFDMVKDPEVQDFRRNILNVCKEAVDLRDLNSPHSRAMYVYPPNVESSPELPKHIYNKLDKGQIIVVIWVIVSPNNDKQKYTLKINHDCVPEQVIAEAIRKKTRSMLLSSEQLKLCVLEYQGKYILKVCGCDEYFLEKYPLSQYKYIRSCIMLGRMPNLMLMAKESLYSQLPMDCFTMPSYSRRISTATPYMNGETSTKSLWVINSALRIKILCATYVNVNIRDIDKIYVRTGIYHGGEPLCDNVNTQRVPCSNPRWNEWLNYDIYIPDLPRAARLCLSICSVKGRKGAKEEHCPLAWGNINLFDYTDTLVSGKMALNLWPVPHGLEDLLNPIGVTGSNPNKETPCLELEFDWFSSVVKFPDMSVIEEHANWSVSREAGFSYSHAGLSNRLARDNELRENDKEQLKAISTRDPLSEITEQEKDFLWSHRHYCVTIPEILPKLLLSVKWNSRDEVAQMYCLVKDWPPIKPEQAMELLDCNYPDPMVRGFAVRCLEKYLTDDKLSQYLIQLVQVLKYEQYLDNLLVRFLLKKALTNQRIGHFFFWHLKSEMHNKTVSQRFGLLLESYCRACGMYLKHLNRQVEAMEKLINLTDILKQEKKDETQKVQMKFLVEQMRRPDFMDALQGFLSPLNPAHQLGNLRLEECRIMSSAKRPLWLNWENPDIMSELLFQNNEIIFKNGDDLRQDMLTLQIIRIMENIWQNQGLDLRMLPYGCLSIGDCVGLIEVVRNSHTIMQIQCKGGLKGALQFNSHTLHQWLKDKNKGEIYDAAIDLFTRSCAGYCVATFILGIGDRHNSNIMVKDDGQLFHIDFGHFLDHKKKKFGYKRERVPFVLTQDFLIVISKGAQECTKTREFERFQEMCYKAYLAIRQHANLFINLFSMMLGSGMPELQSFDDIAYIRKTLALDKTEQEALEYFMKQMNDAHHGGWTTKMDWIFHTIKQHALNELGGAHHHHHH

PI3Kbeta = molecular target: T3, PI3Kbeta (Homo sapiens, UniProt P42338); assay: PI3K KinaseGlo assay, PI3Kbeta; settings: 1 μM ATP, 25 nM enzyme, 30 mins
T3 construct: p85α iSH2 domain (fusion partner); His tag (C); made in house; host or cells: baculovirus / Tn5 insect cells
T3 sequence (P42338 with tags, fused parts or gaps limits assumed): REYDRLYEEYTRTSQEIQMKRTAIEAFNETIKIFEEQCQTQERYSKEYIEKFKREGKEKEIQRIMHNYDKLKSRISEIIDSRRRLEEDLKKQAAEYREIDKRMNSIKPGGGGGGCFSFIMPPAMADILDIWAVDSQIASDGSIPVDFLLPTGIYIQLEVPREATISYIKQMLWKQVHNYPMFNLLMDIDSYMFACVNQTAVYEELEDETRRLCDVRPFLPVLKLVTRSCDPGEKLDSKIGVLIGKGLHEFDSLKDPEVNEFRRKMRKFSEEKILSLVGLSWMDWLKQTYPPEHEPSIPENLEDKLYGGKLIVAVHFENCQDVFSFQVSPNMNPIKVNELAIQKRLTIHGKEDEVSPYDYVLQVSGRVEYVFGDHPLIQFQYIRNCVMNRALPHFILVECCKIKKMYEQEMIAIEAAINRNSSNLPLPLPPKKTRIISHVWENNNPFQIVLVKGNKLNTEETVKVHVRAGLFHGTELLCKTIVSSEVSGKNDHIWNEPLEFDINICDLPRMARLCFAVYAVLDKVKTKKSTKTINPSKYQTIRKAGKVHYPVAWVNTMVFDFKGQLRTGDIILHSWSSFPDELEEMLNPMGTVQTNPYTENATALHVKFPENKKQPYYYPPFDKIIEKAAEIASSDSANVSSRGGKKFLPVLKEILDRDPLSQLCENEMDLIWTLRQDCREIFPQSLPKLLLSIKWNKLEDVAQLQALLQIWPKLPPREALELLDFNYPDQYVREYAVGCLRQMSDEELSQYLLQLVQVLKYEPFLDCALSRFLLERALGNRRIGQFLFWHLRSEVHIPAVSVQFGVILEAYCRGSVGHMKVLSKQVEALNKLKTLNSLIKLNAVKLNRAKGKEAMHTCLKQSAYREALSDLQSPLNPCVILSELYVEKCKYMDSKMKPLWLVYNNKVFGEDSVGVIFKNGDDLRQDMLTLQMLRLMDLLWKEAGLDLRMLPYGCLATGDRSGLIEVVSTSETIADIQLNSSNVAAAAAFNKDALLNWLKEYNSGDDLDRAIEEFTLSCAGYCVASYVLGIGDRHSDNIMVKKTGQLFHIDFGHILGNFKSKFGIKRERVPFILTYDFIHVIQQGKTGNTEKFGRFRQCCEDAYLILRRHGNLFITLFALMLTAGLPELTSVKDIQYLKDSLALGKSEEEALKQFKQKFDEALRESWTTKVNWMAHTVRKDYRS

PI3Kdelta = molecular target: T4, PI3Kdelta (Homo sapiens, UniProt O00329); assay: PI3K KinaseGlo assay, PI3Kdelta; settings: 1 μM ATP, 10 nM enzyme, 30 mins
T4 construct: for the full-length p110δ subunit were generated and fused by overlapping PCR; His tag (C); made in house; host or cells: baculovirus / Tn5 insect cells
T4 sequence (O00329 with tags, fused parts or gaps): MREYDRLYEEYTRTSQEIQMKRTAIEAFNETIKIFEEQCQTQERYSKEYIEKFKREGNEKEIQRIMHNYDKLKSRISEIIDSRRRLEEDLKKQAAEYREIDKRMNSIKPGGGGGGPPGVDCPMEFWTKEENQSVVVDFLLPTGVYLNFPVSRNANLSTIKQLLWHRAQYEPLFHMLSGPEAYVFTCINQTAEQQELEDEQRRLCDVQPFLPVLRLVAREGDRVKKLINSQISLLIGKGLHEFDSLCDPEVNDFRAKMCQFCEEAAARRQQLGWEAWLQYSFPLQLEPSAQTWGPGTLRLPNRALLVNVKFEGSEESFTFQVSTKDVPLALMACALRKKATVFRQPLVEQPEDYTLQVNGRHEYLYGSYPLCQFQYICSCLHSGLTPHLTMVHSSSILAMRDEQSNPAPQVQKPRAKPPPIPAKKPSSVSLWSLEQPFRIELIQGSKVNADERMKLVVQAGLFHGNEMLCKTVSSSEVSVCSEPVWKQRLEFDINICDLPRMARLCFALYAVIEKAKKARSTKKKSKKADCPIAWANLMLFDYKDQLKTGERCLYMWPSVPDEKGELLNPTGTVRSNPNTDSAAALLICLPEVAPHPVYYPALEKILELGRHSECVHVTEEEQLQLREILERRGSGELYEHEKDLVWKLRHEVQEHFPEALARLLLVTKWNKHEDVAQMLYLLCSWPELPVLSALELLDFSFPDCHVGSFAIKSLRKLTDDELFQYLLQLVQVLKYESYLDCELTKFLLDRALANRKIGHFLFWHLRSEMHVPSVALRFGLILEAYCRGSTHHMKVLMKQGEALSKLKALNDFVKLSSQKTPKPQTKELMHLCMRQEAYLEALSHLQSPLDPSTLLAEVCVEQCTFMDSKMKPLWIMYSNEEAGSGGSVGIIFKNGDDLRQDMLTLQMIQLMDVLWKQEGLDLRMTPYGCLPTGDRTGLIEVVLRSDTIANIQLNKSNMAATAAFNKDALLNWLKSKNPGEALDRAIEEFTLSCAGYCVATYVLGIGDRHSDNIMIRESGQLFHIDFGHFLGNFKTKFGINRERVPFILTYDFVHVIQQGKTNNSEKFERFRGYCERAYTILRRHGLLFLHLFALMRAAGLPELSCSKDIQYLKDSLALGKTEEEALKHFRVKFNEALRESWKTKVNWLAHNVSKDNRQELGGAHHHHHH

T1 sequence (P48736 with tags, fused parts or gaps Q459R): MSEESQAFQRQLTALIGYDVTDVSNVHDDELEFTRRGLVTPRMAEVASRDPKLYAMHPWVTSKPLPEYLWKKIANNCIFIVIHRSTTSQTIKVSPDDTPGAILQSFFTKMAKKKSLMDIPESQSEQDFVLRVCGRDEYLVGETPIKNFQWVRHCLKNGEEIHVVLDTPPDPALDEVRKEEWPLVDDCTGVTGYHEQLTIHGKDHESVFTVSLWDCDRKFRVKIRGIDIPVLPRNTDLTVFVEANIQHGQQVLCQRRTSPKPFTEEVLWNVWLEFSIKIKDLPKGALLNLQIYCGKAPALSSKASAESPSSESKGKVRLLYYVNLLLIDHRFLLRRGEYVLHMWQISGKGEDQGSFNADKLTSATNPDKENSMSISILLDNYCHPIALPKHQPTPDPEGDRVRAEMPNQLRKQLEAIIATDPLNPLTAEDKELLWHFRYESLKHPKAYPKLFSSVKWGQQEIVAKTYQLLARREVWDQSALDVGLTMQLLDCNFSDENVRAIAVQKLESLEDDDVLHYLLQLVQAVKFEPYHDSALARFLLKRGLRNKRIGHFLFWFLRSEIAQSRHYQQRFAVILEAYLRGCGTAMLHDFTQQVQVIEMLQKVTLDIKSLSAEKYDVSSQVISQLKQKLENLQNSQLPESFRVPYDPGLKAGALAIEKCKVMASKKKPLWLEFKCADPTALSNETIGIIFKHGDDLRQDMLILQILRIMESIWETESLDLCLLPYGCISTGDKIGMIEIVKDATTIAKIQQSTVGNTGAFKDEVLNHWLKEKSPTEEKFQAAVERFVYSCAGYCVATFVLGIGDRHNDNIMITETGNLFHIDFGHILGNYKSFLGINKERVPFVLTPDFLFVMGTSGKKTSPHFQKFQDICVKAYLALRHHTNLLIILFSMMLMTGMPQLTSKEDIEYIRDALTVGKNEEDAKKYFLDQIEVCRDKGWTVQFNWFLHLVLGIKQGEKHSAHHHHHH

pIC50 (PI3Kgamma)	pIC50 (PI3Kalpha)	pIC50 (PI3Kbeta)	pIC50 (PI3Kdelta)	Structure (SMILES)
6.03	7.11	6.05	5.90	Cc1nc(NC(=O)N2CCC[C@@]2(C)C(N)=O)sc1-c1csc(CC2CC2)n1 [Example 49, (S)-2-Methyl-pyrrolidine-1,2-dicarboxylic acid 2-amide 1-[(2-cyclopropylmethyl-4′-methyl-[4,5]bithiazolyl-2′-yl)-amide]]
5.60	7.27	5.16	6.21	Cc1nc(NC(=O)N2CCC2C(N)=O)sc1-c1csc(C(C)(C)C)n1 (stereo not drawn) [Example 13, Azetidine-1,2-dicarboxylic acid 2-amide 1-[(2-tert-butyl-4′-methyl-[4,5]bithiazolyl-2′-yl)-amide]]

Structure (SMILES)	pIC50 (PI3Kgamma)	pIC50 (PI3Kalpha)	pIC50 (PI3Kbeta)	pIC50 (PI3Kdelta)
Cc1nc(NC(=O)N2CCC[C@H]2C(N)=O)sc1-c1csc(N2CC3CCC(CC3)C2)n1 [Example 23, (S)-Pyrrolidine-1,2-dicarboxylic acid 2-amide 1-{[2-(3-aza-bicyclo[3.2.2]non-3-yl)-4′-methyl-[4,5]bithiazolyl-2′-yl]-amide}]	5.79	6.48	5.07	5.63
